According to publication PMC12028158, “Synthesis and In Vitro Evaluation of the Anticancer Effect of Novel Phosphonium Vindoline Derivatives” (International Journal of Molecular Sciences, 2025):
pIC50: −log10 of the molar value.

How the values were obtained:
[1] = system: non-tumor CHO cells; experiment: CellTiter-Glo Luminescent Cell Viability Assay; assay type: cell-based, Chinese hamster; conditions: for pIC50: Cricetulus griseus, 48 h treatment, read-out: IC50 (estimated)
Protocol: Conjugates 9b and 9e were selected based on their antitumor effects to be tested on non-tumor CHO cells in the CellTiter-Glo Luminescent Cell Viability Assay to investigate their potential selectivity for cancer cells. Following a 48 h treatment with the conjugates in the 0.10–10 µM concentration range, a concentration-dependent decrease in the luminescent signal was observed, indirectly representing the ATP production of living cells as an indicator of cell viability.
Conjugates 9b and 9e were dissolved in DMSO in 10 mM stock solutions and stored frozen until use. CHO cells were cultured in complete Dulbecco’s Modified Eagle’s Medium (DMEM, low glucose (1 g/L) supplemented with 10% fetal bovine serum, 1% Gibco GlutaMAX-I (100×) solution, 1% Gibco MEM non-essential amino acid solution (100×), and 0.1% penicillin–streptomycin mixture). The CellTiter-Glo Luminescent Cell Viability Assay (Promega Corporation, Madison, WI, USA) was performed as previously described. Cells were grown under standard cell culture conditions (37 °C, 5% CO2) and passaged at 70–80% confluency. According to the manufacturer’s protocol, CHO cells were seeded to opaque 96-well culture plates (5000 cells/100 µL complete DMEM/well) and the side rows and columns of the plate were filled with sterile phosphate-buffer saline to avoid artifacts. […] The luminescent signal was measured for each assay well with an EnSpire AlphaLisa microplate reader (Perkin Elmer, Inc., Waltham, MA, USA). […] Estimated IC50 values were calculated using non-linear regression by fitting a sigmoidal dose-response curve to the data points (log(inhibitor) vs. normalized response, variable slope, and least squares fit).
Statistical analysis (ANOVA) and estimation of IC50 values were performed in GraphPad Prism 8.0.1 (GraphPad, La Jolla, CA, USA). Estimated IC50 values were calculated using non-linear regression by fitting a sigmoidal dose-response curve to the data points (log(inhibitor) vs. normalized response, variable slope, least squares fit).

[2] = system: A2780 cells; experiment: Cell cycle analysis (propidium iodide flow cytometry); assay type: cell-based, human
Protocol: Based on its promising IC50 and selectivity, compound 9g was selected for further investigations, including cell cycle analysis. Treatment with derivative 9g induced concentration- and time-dependent cell cycle disturbances in A2780 ovarian cancer cells, accompanied by apoptosis (Figure 3). […] After a 48 h exposure, the lower concentration maintained this pattern (G0/G1 elevation and S and G2/M reduction).
A2780 cells were seeded onto 12-well plates at densities of 200,000 cells per well and the plates were then incubated overnight under standard cell culture conditions. Then, the media were removed and the cells in each well were washed with phosphate-buffered saline (PBS) and treated with 1000 µL of fresh medium containing 1.5 or 3.0 µM of compound 9g for 24 or 48 h. After the incubation, the cells were washed with PBS and harvested using trypsinization. The cell suspensions were centrifuged at 1100 rpm for 5 min at room temperature. The cells were rewashed and fixed in 500 µL of cold 70% ethanol for 30 min. Following the fixation, cells were centrifuged at 1300 rpm for 5 min at 4 °C and the pellets were resuspended in 300 µL staining solution (containing 10 µg/mL propidium iodide, 0.1% Triton-X, 0.1% sodium citrate, and 10 µg/mL RNase-A in water). The samples were stored in the dark at room temperature for 30 min. The stained cells were then analyzed using a flow cytometer (CytoFLEX, Beckman Coulter, Brea, CA, USA), recorded by CytExpert Software 2.5.0.77 (Beckman Coulter), ensuring that at least 20,000 events per sample were evaluated. The percentages of cells in different phases of the cell cycle (subG1, G1, S, and G2/M) were determined using ModFit LT 3.3.11 software (Verity Software House, Topsham, ME, USA); the subG1 fraction indicated the apoptotic cell population, as referenced by Vermes et al.. […]

[3] = system: 60 human tumor cell lines (NCI60); set-up: method as in PMID 39063170; conditions: previous work; cited from earlier work

CC[C@]12C=CCN3CC[C@@]4(c5ccc(OC)cc5N(C)[C@H]4[C@@](O)(C(=O)OC)[C@@H]1OC(=O)CCC[P+](c1ccc(OC)cc1)(c1ccc(OC)cc1)c1ccc(OC)cc1)[C@@H]32 [9b] showed a pIC50 [1] of 5.53.
Work on CC[C@]12C=CCN3CC[C@@]4(c5ccc(OC)cc5N(C)[C@H]4[C@@](O)(C(=O)OC)[C@@H]1OC(=O)CCC[P+](c1cc(C)c(OC)c(C)c1)(c1cc(C)c(OC)c(C)c1)c1cc(C)c(OC)c(C)c1)[C@@H]32 [9e] yielded a decrease in viability ([1]; 1.0 µM, 48 h) of 26.4 ± 5.8% and a pIC50 [1] of 5.87.
In the case of CC[C@]12C=CCN3CC[C@@]4(c5ccc(OC)cc5N(C)[C@H]4[C@@](O)(C(=O)OC)[C@@H]1OC(=O)CCC[P+](c1ccccc1)(c1ccccc1)c1ccccn1)[C@@H]32 [9g], the “S and G2/M phase populations” value ([2]; A2780, 1.5 μM and 3.0 μM, 24 h) was “decreasing”, the “proportion of cells in the G0/G1 phase” value ([2]; A2780, 1.5 μM and 3.0 μM, 24 h) was “significantly increased” and the subG1 cell population ([2]; A2780, particularly after the more prolonged exposure (48 h)) was “remarkable increase”.
For CCC12C=CCN3CC[C@@]4(c5ccc(OC)cc5N(C)[C@H]4[C@@](O)(C(=O)OC)[C@@H]1OC(C)=O)[C@@H]32 (stereo partly shown) [compound 2, vindoline], the “antiproliferative effects (in words)” value [3] is listed as “do not exert antiproliferative effects”.
